From a melting point compilation (Tetko et al.; mined from patent text by program, amines drawn as free bases though some values may be those of a salt)

| melting point [°C] | Structure (SMILES) |
| --- | --- |
| 158 to 162 | COc1ccc(C(C#N)Cc2c(Cl)cncc2Cl)c2c1OC(C)(C)C2 (stereo not given) |
| 154 | CNC(=O)c1cc(-c2ccc(OC)cc2)nn(C(C)C)c1=O |
| 210 to 211 | CCCc1nc2c(N)nc3ccccc3c2n1CCCCCC(N)=O |
| 240 to 248 | CC(=O)N1CCC(NC(=O)Nc2ccc(C(F)(F)F)cc2)CC1 |
| 91.5 to 93.5 | CN1CCCCC1CCc1ccccc1NS(C)(=O)=O (stereo not given) |
| 76 to 78 | O=C(CCN1CCN(c2cccc3[nH]ccc23)CC1)c1csc2ccc(F)cc12 |
| 206 to 208 | O=C(NC1c2cc(NC(=O)N3CCCC3)ccc2CCC1O)c1ccc(Cl)c(Cl)c1 (stereo not given) |
| 143 to 147 | O=C(O)C(CC1CCCC1)c1ccc(C#Cc2ccccn2)cc1 (stereo not given) |
| 215 to 217 | Cc1cc(C)c(Nc2nc(C)ncc2S(=O)(=O)c2ccc(-c3ncccn3)cc2)c(C)c1 |
| 142 to 145 | CC1Cc2c(c3ccccc3n2C(=O)c2ccccc2)C(C)C1C(=O)O (stereo not given) |
| 205 to 206 | O=C(O)C1=Cc2cc(-c3ccc(Cl)s3)ccc2OC1C(F)(F)F (stereo not given) |
| 103 to 106 | CN(C)CCOc1cc(NS(=O)(=O)c2ccc(Oc3cccc(Cl)c3C#N)cc2)ccc1Cl |
| 117 to 118 | NCC(c1ccc(Cl)c(Cl)c1)C1CCCCC1O (mixture of isomers) |
| 131 to 133 | Cn1cc(C(=O)Nc2ccccc2-c2ccc(Cl)c(Cl)c2)c(C(F)(F)F)n1 |
| 107 to 109 | N#Cc1c(Cl)ccnc1Cl |
| 135 to 140 | CC(=O)COc1cccnc1C(N)=O |

| melting point [°C] | Structure (SMILES) |
| --- | --- |
| 212 to 218 | NC(=O)N1C(=O)C(=C(OC(=O)c2ccc(C(=O)OCc3ccccc3)cc2)c2cccs2)c2cc(F)c(Cl)cc21 |
| 264 to 266 | Cc1ccc(-c2c(F)c(F)c3c(=O)c(C(=O)O)cn(C4CC4)c3c2F)c(C)n1 |
| 110 to 111 | CCCCCOc1cc2c(cc1OCc1cccc(C(=O)OC)c1)C(=O)CC2 |
| 143 | N#CCOc1cc(-c2ccccc2)[nH]n1 |
| 187 to 189 | O=C(O)C(O)=CC(=O)c1cc(Cc2ccc(F)cc2F)cn(Cc2ccccc2F)c1=O |
| 182 | COc1ccc2c(c1)c(O)c(C#N)n2-c1ccccc1 |
| 161 to 162 | COc1ccc2c(c1)C(=O)c1c-2c(N2CCN(C(=O)CCNCCN(C)C)CC2)nc2ccccc12 |
| 70 | CC(=O)OC1CCc2cc(N(C(C)=O)S(C)(=O)=O)c(Oc3ccccc3)cc21 (stereo not given) |
| 290 | Nc1ccc(O)c2c1C(=O)c1c(N)ccc(O)c1C2=O |
| 55 to 56 | Brc1ccc(-c2cccs2)s1 |
| 185 to 193 | CN1C(=O)CC[C@]2(C)c3ccc(Sc4nc(-c5ccccc5)nc5ccccc45)cc3CC[C@@H]12 |
| 122 to 123 | O=C(O)c1cnoc1-c1ccc(Cl)cc1Cl |
| 169 to 171 | Nc1cc(C(F)(F)F)c(Br)cc1S(=O)(=O)c1ccccc1 |
| 177 to 179 | CCc1coc2c(-c3ccc(F)cc3)c(-c3ccc(S(C)(=O)=O)cc3)nn12 |
| 80 to 80.5 | CC(C)(C)SSc1nc2ccccc2s1 |
| 218 to 222 | CC(C)(C)OC(=O)N1CC2CCCCC(C1)C2C(=O)O (stereo not given) |

More lines, now with the values behind:

| Structure (SMILES) | melting point [°C] |
| --- | --- |
| CCOC(=O)C(C)(C)NC(=O)c1c(Cl)c2cc(Oc3ccc(C(F)(F)F)cc3)ccc2n1-c1ccc(OC(C)C)cc1 | 135 to 137 |
| COC(=O)c1cc(OCCCCCCCCCCCCOc2ccccc2)ccc1OCc1ccccc1 | 46 to 48 |
| CCCCc1nc2c(C(F)(F)F)cccc2c(O)c1C(=O)OCC | 68 to 69 |
| OCC1(CO)Nc2cccc3cccc(c23)N1 | 158 |
| CC(C)c1cc(C(=O)Nc2ccc(C(=O)O)cn2)oc1C(C)C | 278 to 279 |
| CCn1c(=O)c2[nH]c(/C=C/c3ccc(OC)c(OC)c3OC)nc2n(CC)c1=O | 276 to 277 |
| O=C(Nc1ccc(Cl)c(C(F)(F)F)c1)Oc1ccc2c(c1)CCCN2Cc1ccccc1 | 151 |
| CCOC(=O)c1cn(C2CC2)c2c(F)c(Br)c(F)c(F)c2c1=O | 187 to 189 |
| OC1CC(c2ccccc2)C(c2ccccc2)(c2ccc(OCCN3CCOCC3)cc2)O1 (stereo not given) | 150 to 153 |
| O=S(=O)(/C=C/c1ccc(Cl)cc1)Nc1ccc(F)cc1 | 105 to 107 |
| CCCCCCCC(=O)CCC(=O)O | 78 to 78.5 |
| Cc1cc(C)cc(C(=O)Cc2ccncc2)c1 | 90 to 91 |
| CC#CC1(O)CCC2C3CCC4=CC(=O)CCC4C3C(=CF)CC21CC (stereo not given) | 199 to 205 |
| c1ccc(-c2ccc3nc(C4(c5ccc6nccnc6c5)N=c5ccccc5=N4)[nH]c3c2)cc1 | 235 |
| CC1=CC(O)C(OC(=O)C=Cc2ccccc2)C(C)(C)CC1=O (stereo not given) | 85.5 to 87 |
| Cc1nc(N2CCN(Cc3ccc4nonc4c3)C2=O)sc1C(=O)NCc1cccnc1 | 110 to 112 |
| CN(C)CCC1CCC2(CC1)Nc1ccc(Cl)cc1S(=O)(=O)N2 (stereo not given) | 234 to 235 |
| CC(=O)NC(C)C(C)n1ncn(-c2ccc(N3CCN(c4ccc(O)cc4)CC3)cc2)c1=O (stereo not given) | 264 |
| Cc1nc2c(o1)-c1c(SC(C)C)sc(C(=O)O)c1CC2 | 277 to 278 |
| COC1=CC2=C(CN1OC)C1=C(c3cc4c(cc3C1=O)OCO4)C(CCCC(C)O)C2=O (stereo not given) | 288 to 290 |
| Nc1cccc(C(F)(F)C(F)(F)C(F)(F)C(F)(F)C(F)(F)C(F)(F)C(F)(F)C(F)(F)F)c1 | 35.5 to 36 |
| COc1ccc(N2CCOCC2)c2sc(C(N)=O)nc12 | 228 to 230 |
| O=C1Nc2ccccc2OC1CCCN1CCC(Cc2ccccc2)CC1 (stereo not given) | 108 |

| Structure (SMILES) | melting point [°C] |
| --- | --- |
| CC(C)N1CCc2ccc(NC(=N)c3cccs3)cc2C1 | 110 to 111 |
| CC(=O)c1cn(Cc2ccccc2F)c(=O)n(Cc2ccccc2F)c1=O | 149 to 150 |
| CCOC(=O)c1nc2scc(COCc3ccc(C#N)cc3)c2c(=O)[nH]1 | 236 to 237 |
| COCCOC/C(=C\S(=O)(=O)c1ccccc1)C(=O)OC(C)(C)C | 46 to 48 |
| N#Cc1cc2c3ccccc3n(Cc3ccccc3)c2s1 | 130 to 132 |
| CCOCC(=O)Nc1cccc(NC)c1C#N | 133 to 134 |
| COc1ccc2ccc(=O)[nH]c2c1 | 190 |
| O=c1nc(-c2cccc(CS(=O)(=O)Cc3ccccc3)n2)sc2ccccc12 | 246 to 248 |
| Cc1nc2ncnn2c(O)c1CCCOCC(C)(C)C | 155 to 159 |
| COc1ccc(OC)c(NC(=O)c2cccc3cc(O)ccc23)c1 | 165 to 166 |
| Cc1noc(NS(=O)(=O)c2ccccc2-c2ccccc2)c1C | 154 to 155 |
| Cc1c(N2CC3(CC3)[C@](C)(N)C2)ccc2c(=O)c(C(=O)O)cn([C@@H]3C[C@@H]3F)c12 | 157 to 159 |
| Cn1c2ccccc2c(=O)c2c(Br)cccc21 | 219 to 221 |
| COc1ccc(C(CCC(C)=O)C(=O)c2ccc(OCc3ccccc3)cc2)cc1 (stereo not given) | 93 to 94 |
| COc1c([N+](=O)[O-])ccc(N)c1Cl | 118 to 123 |
| COc1ccc(-c2noc3c2C(c2cc(OC)c(OC)c(OC)c2)C2=C(COC2=O)N3)cc1 (stereo not given) | 218 to 219 |
| Cc1nnc2ccc(-c3cccc(NC(=O)N(C)C)c3)nn12 | 237 to 239 |
| COc1cc(N)ccc1C(O)c1cc(C)ccn1 (stereo not given) | 114 to 117 |
| CC(=O)C1c2cccc(O)c2C(=O)c2c(O)cccc21 | 146 |
| Cc1c(C2CCC(c3cccs3)(N(C)C)CC2)[nH]c2ccccc12 (stereo not given) | 191 to 197 |
| COc1cc(C(=O)c2ccccc2Cl)cc([N+](=O)[O-])c1O | 129 to 131 |
| CC1C(Cl)(Cl)C1(C)c1ccc(O)cc1 (stereo not given) | 79 to 82 |
| CCN(CC)C(=O)c1cc(-c2ccc(OC)cc2)ccc1-c1ccccc1 | 117 to 118 |

| Structure (SMILES) | melting point [°C] |
| --- | --- |
| COC(=O)c1sc2ccc(CCl)cc2c1C | 115 to 116 |
| CCCCCCCC(=O)OC(C)OC1=C(C(=O)Nc2ccccn2)N(C)S(=O)(=O)c2ccccc21 (stereo not given) | 90 to 91 |
| O=C(O)COc1cc2onc(-c3ccccc3F)c2cc1Cl | 214 to 215 |
| CC(C)OCC(O)CN1CCC2(CC1)CSC1=C(O2)c2ccccc2C(=O)C1=O (stereo not given) | 97 to 99 |
| CC#CC1(O)CCC2C3CCC4=CC(=O)CCC4C3CCC21CCC (stereo not given) | 182 to 184 |
| Cc1ncnc2c1ncn2[C@H](C)[C@](O)(Cn1cncn1)c1ccc(F)cc1F | 200 to 201 |
| Cc1ccc(C(=O)NCCCSc2ccncc2)s1 | 86 to 87 |
| COc1ncccc1NC(=O)C1(O)CCCn2c1nc(-c1ccncn1)cc2=O (racemic) | 208 to 210 |
| C=CCC(C#N)(C#N)Cc1ccc(Br)cc1 | 61.7 |
| O=[N+]([O-])c1ccc(C=Cc2ccc(OCC(O)CO)cc2)cc1 (stereo not given) | 147 |
| NS(=O)(=O)c1ccc(-c2cc(-c3nc(-c4ccc(C(F)(F)F)cc4)cc(C(F)F)n3)ccn2)s1 | 242 |
| C=C(C(=O)OCC)c1cc(-c2cc3c(cc2C)C(C)(C)CCC3(C)C)ccc1OCOC | 100 to 101 |
| Cc1cc(-c2cccc(-c3ccc(CCCNC4CCc5ccccc5C4)cc3)n2)c(C)[nH]1 (stereo not given) | 120 to 130 |
| Cc1oc(-c2ccccc2)nc1CCOc1ccc(CC(Nc2ccccc2C(=O)c2ccccc2)C(=O)O)c2sccc12 (stereo not given) | 124 to 127 |
| Cn1cncc1C(c1ccc(Cl)cc1)c1ccc2c(c1)C(c1cccc(Cl)c1)SCC(=O)N2 (stereo not given) | 187 |
| CC(C)(C)OC(=O)[C@H]1CCCN1 | 51.5 to 53.2 |
| C[C@@H](n1cnc2cc(NC(=O)C(F)(F)F)c(F)cc2c1=O)[C@](O)(Cn1cncn1)c1ccc(F)cc1F | 130 to 132 |
| O=C(O)COc1ccc(C2=CC(=O)CC(c3ccccc3F)C2)c(Cl)c1Cl (stereo not given) | 187 to 190 |
| CN1CCN(c2ccc(-c3cnc4c(c3)N(Cc3cc(F)ccc3F)CCN4)cn2)CC1 | 192 to 193 |
| CSc1nn2c(N)cc(C)nc2c1S(=O)(=O)c1ccccc1C | > 250 |
| CCc1cccc2nc3c(=O)[nH][nH]c(=O)c3c(O)c12 | > 400 |
| CCc1cnc(-c2ccc(N=C=S)cc2)nc1 | 114 |
